According to US11485729B2, “Substituted pyridazinone compound” (Shenzhen TargetRx, Inc., priority 2018, dated 2022):

Experiment: Metabolic stability evaluation in human liver microsomes
Assay type: in vitro ADME
Settings: pH 7.4, Human liver microsome, 0.5 mg/mL protein, 1 μM compound
Method: (2) Metabolic Stability Evaluation
Microsome assay: human liver microsomes: 0.5 mg/mL, Xenotech; rat liver microsomes: 0.5 mg/mL, Xenotech; coenzyme (NADPH/NADH): 1 mM, Sigma Life Science; magnesium chloride: 5 mM, 100 mM phosphate buffer (pH 7.4).
Preparation of stock solutions: Powder of the example compounds were accurately weighed and dissolved in DMSO to 5 mM respectively.
Preparation of phosphate buffer (100 mM, pH7.4): A pre-prepared 0.5M potassium dihydrogen phosphate (150 mL) was mixed with 0.5M dibasic potassium phosphate (700 mL). The pH of the mixture was adjusted to 7.4 with 0.5M dibasic potassium phosphate solution. The mixture was diluted 5-fold with ultrapure water before use, and magnesium chloride was added to obtain a phosphate buffer (100 mM) containing 100 mM potassium phosphate, 3.3 mM magnesium chloride, pH 7.4.
A NADPH regeneration system solution (containing 6.5 mM NADP, 16.5 mM G-6-P, 3 U/mL G-6-P D, 3.3 mM magnesium chloride) was prepared and placed on wet ice prior to use.
Preparation of stop solution: an acetonitrile solution containing 50 ng/mL propranolol hydrochloride and 200 ng/mL tolbutamide (internal standard). 25057.5 μL of phosphate buffer (pH 7.4) was taken into a 50 mL centrifuge tube, to which 812.5 μL of human liver microsomes were added, and mixed to obtain a liver microsome dilution with a protein concentration of 0.625 mg/mL. 25057.5 μL of phosphate buffer (pH 7.4) was taken into a 50 mL centrifuge tube, to which 812.5 μL of SD rat liver microsomes were added, and mixed to obtain a liver microsome dilution with a protein concentration of 0.625 mg/mL.
Incubation of the samples: The stock solutions of the respective compounds were respectively diluted to 0.25 mM with an aqueous solution containing 70% acetonitrile, and used as a working solution, ready for use. 398 μL of the dilutions of human liver microsomes and rat liver microsomes were added to 96-well incubation plates (N=2), respectively, and 2 μL of 0.25 mM working solution was added respectively and mixed.
Metabolic stability assay: 300 μL of pre-chilled stop solution was added to each well of 96-well deep well plates and placed on ice as stop plates. The 96-well incubation plates and NADPH regeneration system were placed in a 37° C. water bath, shaken at 100 rpm and pre-incubated for 5 min. 80 μL of incubation solution was taken out from each well of the incubation plates and added to the stop plates, mixed, and replenished with 20 μL of NADPH regeneration system solution as a 0-min sample. 80 μL of NADPH regeneration system solution was added to each well of the incubation plates to start the reaction and start counting. […] Separately, 100 μL of the reaction solutions was taken at 10, 30, and 90 min after the reaction, respectively, added to stop plates, and vortexed for 3 minutes to terminate the reaction. The stop plates were centrifuged at 5000×g at 4° C. for 10 min. 100 μL of the supernatant was added to a 96-well plate to which 100 μL of distilled water was previously added, mixed, and analyzed by LC-MS/MS.
Data analysis: The peak areas of the corresponding compounds and internal standard were detected by LC-MS/MS system, and the ratio of the peak area of the compounds to the internal standard was calculated.
The metabolic stability of the compounds in human and rat liver microsomes was evaluated by simultaneously testing and comparing the compounds disclosed herein and the non-deuterated compound. The non-deuterated compound MGL-3196 was used as a control sample.

Row | half-life at 1 μM [h] | microsomal CLint at 1 μM [µL/min/mg] | SMILES
1 | > 16.7 | 0.1 to 2 | [2H]C([2H])([2H])C(C)c1cc(Oc2c(Cl)cc(-n3nc(C#N)c(=O)[nH]c3=O)cc2Cl)n[nH]c1=O (stereo not drawn) [Compound M-1, 2-(3,5-dichloro-4-((6-oxo-5-(propan-2-yl-1,1,1-d3)-1,6-dihydropyridazin-3-yl)oxy)phenyl)-3,5-dioxo-2,3,4,5-tetrahydro-1,2,4-triazine-6-carbonitrile]
2 | > 16.7 | 0.1 to 2 | [2H]C([2H])([2H])C(c1cc(Oc2c(Cl)cc(-n3nc(C#N)c(=O)[nH]c3=O)cc2Cl)n[nH]c1=O)C([2H])([2H])[2H] [Compound M-2, 2-(3,5-dichloro-4-((6-oxo-5-(propan-2-yl-1,1,1,3,3,3-d6)-1,6-dihydropyridazin-3-yl)oxy)phenyl)-3,5-dioxo-2,3,4,5-tetrahydro-1,2,4-triazine-6-carbonitrile]
3 | > 16.7 | 0.1 to 2 | [2H]c1c(Cl)c(Oc2cc(C(C([2H])([2H])[2H])C([2H])([2H])[2H])c(=O)[nH]n2)c(Cl)c([2H])c1-n1nc(C#N)c(=O)[nH]c1=O [Compound M-3, 2-(3,5-dichloro-4-((6-oxo-5-(propan-2-yl-1,1,1,3,3,3-d6)-1,6-dihydropyridazin-3-yl)oxy)phenyl-2,6-d2)-3,5-dioxo-2,3,4,5-tetrahydro-1,2,4-triazine-6-carbonitrile]
4 | > 16.7 | 0.1 to 2 | [2H]c1c(Cl)c(Oc2cc(C(C)C)c(=O)[nH]n2)c(Cl)c([2H])c1-n1nc(C#N)c(=O)[nH]c1=O [Compound M-4, 2-(3,5-dichloro-4-((5-isopropyl-6-oxo-1,6-dihydropyridazin-3-yl)oxy)phenyl-2,6-d2)-3,5-dioxo-2,3,4,5-tetrahydro-1,2,4-triazine-6-carbonitrile]
5 | < 8.33 | 2.5 to 3 | CC(C)c1cc(Oc2c(Cl)cc(-n3nc(C#N)c(=O)[nH]c3=O)cc2Cl)n[nH]c1=O [MGL-3196, 2-(3,5-dichloro-4-((5-isopropyl-6-oxo-1,6-dihydropyridazin-3-yl)oxy)phenyl)-3,5-dioxo-2,3,4,5-tetrahydro-1,2,4-triazine-6-carbonitrile, reference compound]

Experiment: not given
Settings: preclinical toxicology, clinical phase 1 and phase II data; cited from earlier work

Row | SMILES | effect on the central thyroid axis, heart rate or bone | liver enzymes
6 | CC(C)c1cc(Oc2c(Cl)cc(-n3nc(C#N)c(=O)[nH]c3=O)cc2Cl)n[nH]c1=O [MGL-3196, 2-(3,5-dichloro-4-((5-isopropyl-6-oxo-1,6-dihydropyridazin-3-yl)oxy)phenyl)-3,5-dioxo-2,3,4,5-tetrahydro-1,2,4-triazine-6-carbonitrile, reference compound] | no inhibitory effect | no increase of the liver enzymes has been observed
